Experimental data as given in patent US10668047B2, “Aziridine containing DNA alkylating agents” (priority 2015, dated 2020).
Where two headings read alike, the source gives them in different places.

Tested on: H460 non-cell lung cancer human tumor cell line
Test: In vitro human tumor cell line cytotoxicity (proliferation) assay, AlamarBlue
Type: cell-based
Description: IC50 values are reported in micromolar and result from exposure of compound at various concentrations for 2 hrs followed by a wash step and addition of fresh media followed by growth and cell viability staining and comparison to a media only treated control.
Specifically, exponentially growing cells are seeded at a density of 4×10^3 cells per well in a 96 well plate and incubated at 37° C. in 5% CO2, 95% air and 100% relative humidity for 24 hours prior to addition of test compounds. Compounds are solubilized in 100% DMSO at 200 times the desired final test concentration. At the time of drug addition, compounds are further diluted to 4 times the desired final concentration with complete medium. Aliquots of 50 μl of compound at specified concentrations are added to microtiter wells already containing 150 μl of medium, resulting in the final drug concentration reported. After drug addition, the plates are incubated for an additional 2 hours at 37° C., 5% CO2, 95% air, and 100% relative humidity, then the drug is washed off and fresh medium is added and the plates are incubated for addition 70 hrs at 37° C., 5% CO2, 95% air and 100% relative humidity. At the end of this incubation, the viable cells are quantified using the AlamarBlue assay. The drug concentration resulting in growth inhibition of 50% (IC50) is calculated using Prism software (Irvine, Calif.), and the results are listed in the table.

[1] = Homo sapiens, NCI-H460, H460 cells, under air, 2 hrs exposure, wash, then 70 hrs growth, read-out: IC50 (air)
[2] = Homo sapiens, NCI-H460, H460 cells, under nitrogen, 2 hrs exposure, wash, then 70 hrs growth, read-out: IC50 (N2)
[3] = Homo sapiens, NCI-H460, read-out: IC50 (N2), H460 cells, under nitrogen, 2 hrs exposure, wash, then 70 hrs growth
[4] = Homo sapiens, NCI-H460, read-out: IC50 (air), H460 cells, under air, 2 hrs exposure, wash, then 70 hrs growth
[5] = H460 cells, under air, 2 hrs exposure, wash, then 70 hrs growth, read-out: IC50 (air)
[6] = H460 cells, under nitrogen, 2 hrs exposure, wash, then 70 hrs growth, read-out: IC50 (N2)

| SMILES | IC50 [1] | IC50 [2] | other results |
| --- | --- | --- | --- |
| Cn1c(C(OP(=O)(N2CC2)N2CC2)C(F)(F)F)cnc1[N+](=O)[O-] (centres unmarked) [compound 2118] | 6200 nM | 10 nM | – |
| CCc1nc([N+](=O)[O-])n(C)c1COP(=O)(N1CC1)N1CC1 [compound 2119] | 900 nM | 30 nM | – |
| CC(C)(C)C(OP(=O)(N1CC1)N1CC1)c1ccc([N+](=O)[O-])o1 (centres unmarked) [compound 2127] | 18000 nM | 20 nM | – |
| Cn1c(C(OP(=O)(N2CC2)N2CC2)C(F)(F)C(F)(F)F)cnc1[N+](=O)[O-] (centres unmarked) [compound 2128] | 18000 nM | 20 nM | – |
| C=Cc1nc([N+](=O)[O-])n(C)c1COP(=O)(N1CC1)N1CC1 [compound 2129] | 700 nM | 80 nM | – |
| C=Cc1nc([N+](=O)[O-])n(C)c1COP(=O)(NCCBr)N1CC1 (centres unmarked) [compound 2130] | – | – | IC50 [3]: 5 nM; IC50 [4]: 1300 nM |
| Cn1c([N+](=O)[O-])cnc1COP(=O)(N1CC1)N1CC1 [compound 2136] | 24000 nM | 100 nM | – |
| Cn1c([N+](=O)[O-])nc(C(F)F)c1COP(=O)(N1CC1)N1CC1 [compound 2137] | 2200 nM | 20 nM | – |
| CC(OP(=O)(N1CC1)N1CC1)c1ccc([N+](=O)[O-])o1 (centres unmarked) [compound 2138] | 300 nM | 6 nM | – |
| O=[N+]([O-])c1ccc(C(OP(=O)(N2CC2)N2CC2)C(F)(F)F)o1 (centres unmarked) [compound 2139] | 300 nM | 4 nM | – |
| Cn1c([N+](=O)[O-])nc(-c2ccco2)c1COP(=O)(N1CC1)N1CC1 [compound 2141] | 500 nM | 80 nM | – |
| Cn1c([N+](=O)[O-])cnc1C(OP(=O)(N1CC1)N1CC1)C(F)(F)F (centres unmarked) [compound 2145] | 170000 nM | 400 nM | – |
| Cn1c([N+](=O)[O-])nc(CCN2CCOCC2)c1C(OP(=O)(N1CC1)N1CC1)C(F)(F)F (centres unmarked) [compound 2147] | 310000 nM | 1100 nM | – |
| CCCCCCCC/C=C/CCCCCCCC(=O)N(C)Cc1nc([N+](=O)[O-])n(C)c1COP(=O)(N1CC1)N1CC1 [compound 2334] | 140 nM | 9 nM | – |
| CC(OP(=O)(N1CC1)N1CC1)c1ncc([N+](=O)[O-])n1C (centres unmarked) [compound 2501] | 21000 nM | 50 nM | – |
| CC(C)C(OP(=O)(N1CC1)N1CC1)c1ncc([N+](=O)[O-])n1C (centres unmarked) [compound 2518] | 420000 nM | 600 nM | – |
| Cn1c([N+](=O)[O-])cnc1C(OP(=O)(NCCBr)NCCBr)C1CC1 (centres unmarked) [compound 2519] | – | – | IC50 [3]: > 500000 nM; IC50 [4]: > 500000 nM |
| Cn1c([N+](=O)[O-])cnc1C(OP(=O)(N1CC1)N1CC1)C1CC1 (centres unmarked) [compound 2520] | 20000 nM | 8800 nM | – |
| Cn1c([N+](=O)[O-])nc(-c2sc(Br)c(Br)c2Br)c1COP(=O)(N1CC1)N1CC1 [compound 2523] | 400 nM | 20 nM | – |
| Cn1c([N+](=O)[O-])nc(-c2cc(Cl)c(Cl)s2)c1COP(=O)(N1CC1)N1CC1 [compound 2525] | 700 nM | 20 nM | – |
| C=CCC(OP(=O)(N1CC1)N1CC1)c1ncc([N+](=O)[O-])n1C (centres unmarked) [compound 2527] | 39000 nM | 90 nM | – |

| SMILES | IC50 [1] | IC50 [2] | other results |
| --- | --- | --- | --- |
| CCCC(OP(=O)(N1CC1)N1CC1)c1ncc([N+](=O)[O-])n1C (centres unmarked) [compound 2529] | 33000 nM | 200 nM | – |
| Cn1c([N+](=O)[O-])cnc1C(OP(=O)(N1CC1)N1CC1)C(C)(C)C (centres unmarked) [compound 2535] | 500000 nM | 26000 nM | – |
| CC(OP(=O)(N1CC1)N1CC1)c1ccc([N+](=O)[O-])cc1 (centres unmarked) [compound 2537] | – | – | IC50 [3]: 300 nM; IC50 [4]: 53000 nM |
| Cn1c([N+](=O)[O-])cnc1C(OP(=O)(N1CC1)N1CC1)c1ccccc1 (centres unmarked) [compound 2542] | 3400 nM | 1500 nM | – |
| CC(C)C(OP(=O)(N1CC1)N1CC1)c1ncc([N+](=O)[O-])n1CCN1CCOCC1 (centres unmarked) [compound 2544] | 45000 nM | 200 nM | – |
| CC(OP(=O)(N1CC1)N1CC1)c1ccccc1[N+](=O)[O-] (centres unmarked) [compound 2547] | 320000 nM | 2600 nM | – |
| O=[N+]([O-])c1ccc(COP(=O)(N2CC2)N2CC2)cc1 [compound 2550] | 29000 nM | 1800 nM | – |
| CC(OP(=O)(N1CC1)N1CC1)c1ncc([N+](=O)[O-])n1C (centres unmarked) [compound 2551] | – | – | IC50 [5]: 20000 nM; IC50 [6]: 100 nM |
| CC(OP(=O)(N1CC1)N1CC1)c1ncc([N+](=O)[O-])n1C (centres unmarked) [compound 2552] | – | – | IC50 [5]: 23000 nM; IC50 [6]: 100 nM |
| COc1cc([N+](=O)[O-])ccc1COP(=O)(N1CC1)N1CC1 [compound 2554] | 3000 nM | 100 nM | – |
| Cc1cc([N+](=O)[O-])ccc1COP(=O)(N1CC1)N1CC1 [compound 2556] | 17000 nM | 700 nM | – |
| CC(OP(=O)(N1CC1)N1CC1)c1c([N+](=O)[O-])ncn1C (centres unmarked) [compound 2560] | 40000 nM | 3700 nM | – |
| Cn1c([N+](=O)[O-])cnc1C(OP(=O)(N1CC1)N1CC1)C1CCCC1 (centres unmarked) [compound 2561] | 29000 nM | 200 nM | – |
| O=[N+]([O-])c1ccccc1C(OP(=O)(N1CC1)N1CC1)c1ccccc1 (centres unmarked) [compound 2563] | 15000 nM | 3200 nM | – |
| CC(C)C(OP(=O)(N1CC1)N1CC1)c1ncc([N+](=O)[O-])n1C (centres unmarked) [compound 2567] | – | – | IC50 [5]: 270000 nM; IC50 [6]: 300 nM |
| CC(C)C(OP(=O)(N1CC1)N1CC1)c1ncc([N+](=O)[O-])n1C (centres unmarked) [compound 2568] | – | – | IC50 [5]: 350000 nM; IC50 [6]: 300 nM |
| C=CCC(OP(=O)(N1CC1)N1CC1)c1ccc([N+](=O)[O-])cc1OC (centres unmarked) [compound 2569] | 2000 nM | 50 nM | – |
| CC(C)C(OP(=O)(N1CC1)N1CC1)c1ccc([N+](=O)[O-])cc1 (centres unmarked) [compound 2572] | 29000 nM | 1600 nM | – |
| C=CCCn1c([N+](=O)[O-])cnc1C(OP(=O)(N1CC1)N1CC1)C(C)C (centres unmarked) [compound 2574] | 29000 nM | 100 nM | – |
| O=[N+]([O-])c1ccc(COP(=O)(N2CC2)N2CC2)c(Cl)c1 [compound 2576] | 1800 nM | 100 nM | – |
| O=[N+]([O-])c1ccccc1COP(=O)(N1CC1)N1CC1 [compound 2578] | 28000 nM | 6000 nM | – |

| SMILES | IC50 [1] | IC50 [2] | other results |
| --- | --- | --- | --- |
| O=[N+]([O-])c1ccc(COP(=O)(N2CC2)N2CC2)cc1Cl [compound 2579] | 2600 nM | 1300 nM | – |
| Cc1cc(COP(=O)(N2CC2)N2CC2)ccc1[N+](=O)[O-] [compound 2580] | 20000 nM | 3700 nM | – |
| C=CCCn1c([N+](=O)[O-])cnc1COP(=O)(N1CC1)N1CC1 [compound 2582] | 18000 nM | 100 nM | – |
| Cc1cccc([N+](=O)[O-])c1COP(=O)(N1CC1)N1CC1 [compound 2588] | 10000 nM | 1300 nM | – |
| COc1ccc(COP(=O)(N2CC2)N2CC2)c([N+](=O)[O-])c1 [compound 2589] | 9600 nM | 100 nM | – |
| Cc1ccc(COP(=O)(N2CC2)N2CC2)c([N+](=O)[O-])c1 [compound 2590] | 15000 nM | 2900 nM | – |
| Cn1c([N+](=O)[O-])cnc1C(Cc1ccccc1)OP(=O)(N1CC1)N1CC1 (centres unmarked) [compound 2591] | 19000 nM | 100 nM | – |
| O=[N+]([O-])c1cc(Cl)ccc1COP(=O)(N1CC1)N1CC1 [compound 2592] | 3300 nM | 700 nM | – |
| CCCCn1c([N+](=O)[O-])cnc1COP(=O)(N1CC1)N1CC1 [compound 2594] | 7400 nM | 150 nM | – |
| CCCC(OP(=O)(N1CC1)N1CC1)c1ccc([N+](=O)[O-])cc1OC (centres unmarked) [compound 2595] | 3200 nM | 200 nM | – |
| CC(C)Oc1cc([N+](=O)[O-])ccc1COP(=O)(N1CC1)N1CC1 [compound 2599] | 1500 nM | 80 nM | – |
| COc1cc([N+](=O)[O-])ccc1C(C)OP(=O)(N1CC1)N1CC1 (centres unmarked) [compound 2600] | 2800 nM | 50 nM | – |
| O=[N+]([O-])c1cc(Cl)c(COP(=O)(N2CC2)N2CC2)c(Cl)c1 [compound 2602] | 250 nM | 20 nM | – |
| CC(C)C(OP(=O)(N1CC1)N1CC1)c1ncc([N+](=O)[O-])n1CCN1CCCCC1 (centres unmarked) [compound 2603] | 29000 nM | 300 nM | – |
| CC(C)C(OP(=O)(N1CC1)N1CC1)c1ncc([N+](=O)[O-])n1C(C)C (centres unmarked) [compound 2604] | 320000 nM | 700 nM | – |
| O=[N+]([O-])c1ccc(COP(=O)(N2CC2)N2CC2)c(Br)c1 [compound 2608] | 3100 nM | 300 nM | – |
| CCC(CC)C(OP(=O)(N1CC1)N1CC1)c1ncc([N+](=O)[O-])n1C (centres unmarked) [compound 2609] | 370000 nM | 400 nM | – |
| CCCC(OP(=O)(N1CC1)N1CC1)c1c(C)cccc1[N+](=O)[O-] (centres unmarked) [compound 2610] | 350000 nM | 51000 nM | – |
| Cc1cc([N+](=O)[O-])ccc1C(C)OP(=O)(N1CC1)N1CC1 (centres unmarked) [compound 2611] | 14000 nM | 200 nM | – |
